Measured values published in US20250042887A1, “GLYCOGEN SYNTHASE KINASE-3 (GSK3) INHIBITOR COMPOUNDS FOR USE AS ANTIVIRAL AGENTS” (priority 2021, published 2025).
Entries after “also recorded” stand apart in the source; their conditions may differ.

Test system: SARS-CoV-2 B.1.617.2 and BA.1 variants
Type: cell-based
Conditions: B.1.617.2 (Delta) and BA.1 (Omicron)

CSc1ccc(-n2cnc3ccc(-c4nnc(CCc5cccc(C#N)c5)o4)cc32)cc1 [Compound P-0717632]
effect on SARS-CoV-2 variants: reduced intracellular viral titres; also recorded: inhibited
